Each structure is given as a SMILES string. Like-named read-outs stand apart in the source and are kept apart here.

What all share (experiment): Ambit kinase profiling, competition binding
Experiment [1] concerns the target T1, BMPR1B (Homo sapiens, UniProt O00238).
T1 construct: purchased Ambit Biosciences (KINOMEscan)
How it is done: (§1) Also included in the kinase profile are four isoforms of PKC (δ, ε, η, θ) and eight isoforms of CAMKs (CAMKIα, δ, γ; CAMKIIα, β, δ, γ; CAMK4).
(§2) The global kinase profiling experiment was performed by Ambit Biosciences.

In experiment [2] the target is T2, DAPK1 (Homo sapiens, UniProt P53355).
T2 construct: purchased Ambit Biosciences (KINOMEscan)
As for the experimental part: as §1, §2

Experiment [3] concerns the target T3, EGFR(S752-I759del) (Homo sapiens, UniProt P00533, DEL752-759).
T3 construct: purchased Ambit Biosciences (KINOMEscan)
The conditions noted are these: for % Competition: 10 µM. How it is done:
as §1, §2

In experiment [4] the target is T4, MUSK (Homo sapiens, UniProt O15146).
T4 construct: purchased Ambit Biosciences (KINOMEscan)
T4 sequence (O15146 24-869): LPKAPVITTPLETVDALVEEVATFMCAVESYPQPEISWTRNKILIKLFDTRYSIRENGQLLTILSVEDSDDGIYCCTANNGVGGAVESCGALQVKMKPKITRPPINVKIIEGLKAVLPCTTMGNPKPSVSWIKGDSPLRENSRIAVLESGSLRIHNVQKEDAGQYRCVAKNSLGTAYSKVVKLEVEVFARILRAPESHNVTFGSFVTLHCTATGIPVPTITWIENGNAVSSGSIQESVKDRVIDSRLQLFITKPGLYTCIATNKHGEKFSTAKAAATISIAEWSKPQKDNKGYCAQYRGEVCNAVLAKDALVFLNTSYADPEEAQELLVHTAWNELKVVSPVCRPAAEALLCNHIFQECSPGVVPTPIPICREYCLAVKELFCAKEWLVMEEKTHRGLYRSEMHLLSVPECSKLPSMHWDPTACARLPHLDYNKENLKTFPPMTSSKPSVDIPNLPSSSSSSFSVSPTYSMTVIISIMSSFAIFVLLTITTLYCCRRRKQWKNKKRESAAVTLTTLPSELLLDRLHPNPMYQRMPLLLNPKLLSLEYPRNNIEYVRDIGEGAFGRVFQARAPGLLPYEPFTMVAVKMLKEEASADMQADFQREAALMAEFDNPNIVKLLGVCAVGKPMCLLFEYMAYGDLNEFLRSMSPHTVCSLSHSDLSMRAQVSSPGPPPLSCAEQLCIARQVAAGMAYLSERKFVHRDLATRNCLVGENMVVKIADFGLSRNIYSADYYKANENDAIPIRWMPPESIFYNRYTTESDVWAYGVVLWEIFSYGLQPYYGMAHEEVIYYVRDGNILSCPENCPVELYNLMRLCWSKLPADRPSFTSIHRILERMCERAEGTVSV
As for the experimental part:
as §1, §2

Experiment [5] deals with T5, PRKCQ (Homo sapiens, UniProt Q04759).
T5 construct: purchased Ambit Biosciences (KINOMEscan)
How it is done: as §1, §2

Experiment [6] deals with T6, PRKD3 (Homo sapiens, UniProt O94806).
T6 construct: purchased Ambit Biosciences (KINOMEscan)
T6 sequence (O94806 1-890): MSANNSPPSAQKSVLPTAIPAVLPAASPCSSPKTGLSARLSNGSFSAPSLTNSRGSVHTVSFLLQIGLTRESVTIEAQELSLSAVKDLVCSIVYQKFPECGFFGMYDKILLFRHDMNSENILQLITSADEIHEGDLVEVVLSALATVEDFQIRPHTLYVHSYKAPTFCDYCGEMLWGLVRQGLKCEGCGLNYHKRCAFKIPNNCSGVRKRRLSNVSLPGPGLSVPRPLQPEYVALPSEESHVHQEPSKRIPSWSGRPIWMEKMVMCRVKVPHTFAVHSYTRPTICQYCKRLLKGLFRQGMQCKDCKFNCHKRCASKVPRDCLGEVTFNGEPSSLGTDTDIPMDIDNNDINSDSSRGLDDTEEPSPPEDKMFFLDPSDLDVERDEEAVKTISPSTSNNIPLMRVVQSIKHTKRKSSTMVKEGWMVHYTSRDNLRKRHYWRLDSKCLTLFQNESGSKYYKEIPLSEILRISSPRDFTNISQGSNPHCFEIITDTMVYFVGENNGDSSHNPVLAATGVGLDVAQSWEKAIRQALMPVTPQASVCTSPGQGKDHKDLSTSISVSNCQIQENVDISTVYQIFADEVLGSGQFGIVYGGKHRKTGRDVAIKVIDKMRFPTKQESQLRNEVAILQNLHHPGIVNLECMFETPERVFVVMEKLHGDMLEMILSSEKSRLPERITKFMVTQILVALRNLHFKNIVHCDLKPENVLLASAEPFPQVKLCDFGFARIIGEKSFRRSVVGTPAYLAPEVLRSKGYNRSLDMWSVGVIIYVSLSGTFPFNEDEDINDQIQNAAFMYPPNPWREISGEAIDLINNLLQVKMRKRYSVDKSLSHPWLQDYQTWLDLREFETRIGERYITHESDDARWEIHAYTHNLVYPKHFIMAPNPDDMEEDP
How it is done: as §1, §2

T5 sequence (Q04759 whole entry): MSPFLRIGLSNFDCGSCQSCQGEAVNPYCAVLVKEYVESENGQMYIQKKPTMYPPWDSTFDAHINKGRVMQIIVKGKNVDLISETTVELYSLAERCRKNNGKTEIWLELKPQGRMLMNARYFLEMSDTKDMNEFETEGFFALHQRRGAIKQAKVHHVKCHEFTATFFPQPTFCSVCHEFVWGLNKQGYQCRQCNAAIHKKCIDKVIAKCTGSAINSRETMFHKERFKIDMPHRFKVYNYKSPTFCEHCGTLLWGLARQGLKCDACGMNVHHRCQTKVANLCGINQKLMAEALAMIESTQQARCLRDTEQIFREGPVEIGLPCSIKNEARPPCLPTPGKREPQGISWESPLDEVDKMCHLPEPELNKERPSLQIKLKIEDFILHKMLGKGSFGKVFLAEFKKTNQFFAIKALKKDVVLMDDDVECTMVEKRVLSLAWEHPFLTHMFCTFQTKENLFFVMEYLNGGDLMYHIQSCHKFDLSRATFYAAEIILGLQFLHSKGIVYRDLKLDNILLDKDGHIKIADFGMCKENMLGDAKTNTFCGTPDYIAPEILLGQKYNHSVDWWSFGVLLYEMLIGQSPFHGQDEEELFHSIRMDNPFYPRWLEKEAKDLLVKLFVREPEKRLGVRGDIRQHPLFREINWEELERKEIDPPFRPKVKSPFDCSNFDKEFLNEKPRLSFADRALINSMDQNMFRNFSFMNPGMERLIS
T1 sequence (O00238 14-502): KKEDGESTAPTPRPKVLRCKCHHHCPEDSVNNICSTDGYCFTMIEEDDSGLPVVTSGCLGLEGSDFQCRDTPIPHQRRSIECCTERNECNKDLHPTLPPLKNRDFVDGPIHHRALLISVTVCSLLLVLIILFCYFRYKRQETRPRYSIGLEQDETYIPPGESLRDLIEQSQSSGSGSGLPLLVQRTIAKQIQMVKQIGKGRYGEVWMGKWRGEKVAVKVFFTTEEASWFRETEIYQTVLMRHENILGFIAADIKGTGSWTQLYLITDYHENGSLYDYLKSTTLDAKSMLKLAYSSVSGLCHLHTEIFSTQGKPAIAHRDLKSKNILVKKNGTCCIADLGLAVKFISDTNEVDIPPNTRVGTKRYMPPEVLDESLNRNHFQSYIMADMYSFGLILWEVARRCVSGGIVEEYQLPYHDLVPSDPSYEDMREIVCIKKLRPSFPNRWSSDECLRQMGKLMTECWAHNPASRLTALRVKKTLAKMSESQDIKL
T2 sequence (P53355 whole entry): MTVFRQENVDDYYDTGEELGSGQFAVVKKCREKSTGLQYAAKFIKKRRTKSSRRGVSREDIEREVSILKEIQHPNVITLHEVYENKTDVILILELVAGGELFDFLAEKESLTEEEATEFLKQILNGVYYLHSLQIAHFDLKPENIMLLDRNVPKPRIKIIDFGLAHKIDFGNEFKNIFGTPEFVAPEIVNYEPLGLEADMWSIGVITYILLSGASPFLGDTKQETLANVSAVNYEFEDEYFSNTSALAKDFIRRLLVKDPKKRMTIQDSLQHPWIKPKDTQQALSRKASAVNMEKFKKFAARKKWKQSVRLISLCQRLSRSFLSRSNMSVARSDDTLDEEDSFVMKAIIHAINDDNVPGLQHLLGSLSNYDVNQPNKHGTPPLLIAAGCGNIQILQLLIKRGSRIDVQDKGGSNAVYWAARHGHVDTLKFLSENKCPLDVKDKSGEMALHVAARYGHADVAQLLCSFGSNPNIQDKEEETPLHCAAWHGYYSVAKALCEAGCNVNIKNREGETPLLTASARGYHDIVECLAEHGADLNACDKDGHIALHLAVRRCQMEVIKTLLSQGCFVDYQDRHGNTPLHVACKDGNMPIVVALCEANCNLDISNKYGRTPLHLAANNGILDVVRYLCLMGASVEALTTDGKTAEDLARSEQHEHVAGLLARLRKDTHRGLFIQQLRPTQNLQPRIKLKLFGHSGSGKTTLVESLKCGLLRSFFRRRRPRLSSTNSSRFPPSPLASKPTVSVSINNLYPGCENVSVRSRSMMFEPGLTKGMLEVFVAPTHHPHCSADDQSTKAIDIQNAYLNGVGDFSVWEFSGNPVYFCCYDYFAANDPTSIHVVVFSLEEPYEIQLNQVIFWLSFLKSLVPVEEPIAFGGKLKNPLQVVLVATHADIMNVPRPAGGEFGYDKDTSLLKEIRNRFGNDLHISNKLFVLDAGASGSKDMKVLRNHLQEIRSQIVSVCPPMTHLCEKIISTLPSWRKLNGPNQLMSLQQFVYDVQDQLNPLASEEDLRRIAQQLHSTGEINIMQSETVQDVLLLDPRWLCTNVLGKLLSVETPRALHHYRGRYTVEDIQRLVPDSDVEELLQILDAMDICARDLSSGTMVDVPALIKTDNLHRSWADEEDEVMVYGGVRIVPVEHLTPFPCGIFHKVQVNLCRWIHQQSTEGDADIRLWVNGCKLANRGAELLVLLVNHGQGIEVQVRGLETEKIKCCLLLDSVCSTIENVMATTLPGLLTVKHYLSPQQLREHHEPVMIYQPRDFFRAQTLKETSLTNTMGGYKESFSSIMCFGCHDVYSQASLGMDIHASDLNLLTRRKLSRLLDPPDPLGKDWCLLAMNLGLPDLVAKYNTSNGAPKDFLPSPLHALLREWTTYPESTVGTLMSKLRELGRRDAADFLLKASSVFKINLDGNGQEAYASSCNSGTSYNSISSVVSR

Regarding `CC(O)CNc1cc(-c2[nH]c3cccnc3c2-c2ccc(F)cc2)ccn1` (stereo not shown) [Compound 140], the inhibition at 10 µM in experiment [1] (read-out: % Competition) is below 50%; in experiment [2] (read-out: % Competition), 73%; in experiment [4] (read-out: % Competition), below 50%; in experiment [5] (read-out: % Competition) it was below 50%; in experiment [6] (read-out: % Competition), 96%. The “% Competition” value in experiment [3] was 91%; in experiment [5] (PRKCQ (PKC θ), 10 µM) it was below 50%.
Consider `Fc1ccc(-c2c(-c3ccncc3)[nH]c3nccnc23)cc1` [RO1155697-000-005], for which the inhibition at 10 µM in experiment [1] (BMPR1B, compound concentration 10 uM, read-out: Percent Competition) was 81%; in experiment [2] (DAPK1, compound concentration 10 uM, read-out: Percent Competition), below 50%; in experiment [4] (MUSK, compound concentration 10 uM, read-out: Percent Competition) it was 94%; in experiment [5] (PRKCQ, compound concentration 10 uM, read-out: Percent Competition) it was 78%; in experiment [6] (PRKD3, compound concentration 10 uM, read-out: Percent Competition) it was 98%. Also, in experiment [3] (compound concentration 10 uM), the “Percent Competition” value was 98%.
With `Fc1ccc(-c2c(-c3ccncc3)[nH]c3nccnc23)cc1` [Compound 122], the inhibition at 10 µM was 81% in experiment [1] (BMPR1B, 10 µM, read-out: % Competition); below 50% in experiment [2] (DAPK1, 10 µM, read-out: % Competition); 94% in experiment [4] (MUSK, 10 µM, read-out: % Competition); 78% in experiment [5] (PRKCQ (PKC θ), 10 µM, read-out: % Competition); 98% in experiment [6] (PRKD3 (PKD3), 10 µM, read-out: % Competition). Besides, in experiment [3], the “% Competition” value is on record as 98%.

(Values after paper PMC3445516 (PLoS ONE, 2012).)
